Data published in PMC10669656, “ADMET and Solubility Analysis of New 5-Nitroisatine-Based Inhibitors of CDK2 Enzymes” (Biomedicines, 2023).
≈ marks a conversion by molar mass, not a printed value. Where “and” joins values, the source holds several entries; their conditions need not be identical. Identical values can stand only once.

Columns and labels:
Type in all cases: physicochemical
[1] = Solubility in neat solvents, shake-flask with spectrophotometric determination; details: for solubility at 24 h: 25 °C, organic solvent or mixture, thermodynamic from solid
Description: (§1) The calibration curves for each derivative were obtained using successful dilutions of initial stock solutions followed by spectrophotometric measurements of the obtained solutions with decreasing concentration. The concentration ranges for the derivatives 1, 2, and 3 were 0.0081–0.0405 mg/mL, 0.0077–0.0385 mg/mL, and 0.0068–0.017 mg/mL, respectively. Methanol was used both as a solvent, as well as a reference for spectrophotometric measurements. […] The A360 spectrophotometer from AOE Instruments was used for the preparation of the calibration curves. […] Three calibration curves were prepared for each derivative and then averaged.
(§2) A multi-step procedure was employed in order to find the solubility of the studied derivatives in the selected solvents. First of all, the excess amount of the considered compound was added to test tubes containing either neat solvents or their mixtures with water in different proportions, thus forming binary solvents. Saturated solutions were obtained in this way, placed in a Shaker Incubator ES-20/60 from Biosan, and incubated for 24 h at 298.1 K. The temperature adjustment was possible with a 0.1-degree accuracy, and the variance within a 24 h cycle was 0.5 degrees. The samples were simultaneously mixed at 60 rev/min. After incubation, the samples were filtered with the help of plastic syringes equipped with PTFE filters with 0.22 µm pore size. The obtained filtrates were diluted with methanol in another set of test tubes. In order to determine the mole fractions of a solute in the solution, 1 mL of the filtered samples was weighed in 10 mL volumetric flasks using a RADWAG AS 110 R2.PLUS analytical balance. The samples diluted with methanol were measured spectrophotometrically using the same instrument as was used in the case of calibration curves. The spectra were recorded in the wavelength range of 190–500 nm, and the resolution was 1 nm. Methanol was used if further dilution of the sample was required, and it was also used as a reference for calibrating the spectrophotometer. The absorbance values at 315 nm, 321 nm, and 321 nm were taken into account for derivatives 1, 2, and 3, respectively. Based on the calibration curves, the concentration of the solute in the samples was determined together with its mole fraction. Three separate measurements were conducted, and the final values are the results of averaging them.

[2] = Solubility in NMP-water binary mixtures; details: for solubility at 24 h: thermodynamic from solid
Description: as §1, §2

[3] = Solubility in DMSO-water binary mixtures; details: for solubility at 24 h: 25 °C, thermodynamic from solid
Description: as §1, §2

[4] = neat γ-nonanoic lactone, 298.1 K

solubility at 24 h ([1]; neat DMF, 298.1 K): 15300 µg/mL (≈ 47 mM)
solubility at 24 h ([1]; neat DMP, 298.1 K): 290 µg/mL (≈ 0.892 mM)
solubility at 24 h ([1]; neat DMSO, 298.1 K): 21400 µg/mL (≈ 65.8 mM)
solubility at 24 h ([1]; neat NMP, 298.1 K): 32700 µg/mL (≈ 101 mM)
solubility at 24 h ([1]; neat acetone, 298.1 K): 900 µg/mL (≈ 2.77 mM)
solubility at 24 h ([1]; neat acetonitrile, 298.1 K): 610 µg/mL (≈ 1.88 mM)
solubility at 24 h ([1]; neat cyrene, 298.1 K): 750 µg/mL (≈ 2.31 mM)
solubility at 24 h ([1]; neat diglyme, 298.1 K): 1190 µg/mL (≈ 3.66 mM)
solubility at 24 h ([1]; neat dioxane, 298.1 K): 960 µg/mL (≈ 2.95 mM)
solubility at 24 h ([1]; neat ethyl lactate, 298.1 K): 560 µg/mL (≈ 1.72 mM)
solubility at 24 h ([1]; neat methanol, 298.1 K): 310 µg/mL (≈ 0.953 mM)
solubility at 24 h ([1]; neat tetraglyme, 298.1 K): 1790 µg/mL (≈ 5.5 mM)
solubility at 24 h ([1]; neat triglyme, 298.1 K): 420 µg/mL (≈ 1.29 mM)
solubility at 24 h ([1]; neat γ-heptalactone, 298.1 K): 1090 µg/mL (≈ 3.35 mM)
solubility at 24 h [1, 4]: 710 µg/mL (≈ 2.18 mM)
solubility at 24 h ([1]; neat 1-butanol): 70 µg/mL (≈ 0.215 mM)
solubility x ([1]; neat 1-butanol, 298.1 K): 0.21 (0.01) × 10^−4 mole fraction
solubility at 24 h ([1]; neat 1-propanol): 100 µg/mL (≈ 0.307 mM)
solubility x ([1]; neat 1-propanol, 298.1 K): 0.23 (0.01) × 10^−4 mole fraction
solubility at 24 h ([1]; neat 4FM): 3470 µg/mL (≈ 10.7 mM)
solubility x ([1]; neat 4FM, 298.1 K): 1.06 (0.04) × 10^−3 mole fraction
solubility x ([1]; neat DMP, 298.1 K): 1.05 (0.03) × 10^−4 mole fraction
solubility x ([1]; neat acetonitrile, 298.1 K): 0.96 (0.03) × 10^−4 mole fraction
solubility x ([1]; neat cyrene, 298.1 K): 2.36 (0.04) × 10^−4 mole fraction
solubility x ([1]; neat diglyme, 298.1 K): 5.22 (0.10) × 10^−4 mole fraction
solubility x ([1]; neat dioxane, 298.1 K): 2.49 (0.05) × 10^−4 mole fraction
solubility at 24 h ([1]; neat ethanol): 150 µg/mL (≈ 0.461 mM)
solubility x ([1]; neat ethanol, 298.1 K): 0.26 (0.01) × 10^−4 mole fraction
solubility x ([1]; neat ethyl lactate, 298.1 K): 1.95 (0.04) × 10^−4 mole fraction
solubility x ([1]; neat methanol, 298.1 K): 0.39 (0.01) × 10^−4 mole fraction
solubility x ([1]; neat tetraglyme, 298.1 K): 1.20 (0.02) × 10^−3 mole fraction
solubility x ([1]; neat triglyme, 298.1 K): 2.34 (0.06) × 10^−4 mole fraction
solubility x ([1]; neat γ-heptalactone, 298.1 K): 4.25 (0.06) × 10^−4 mole fraction
solubility x [1, 4]: 3.46 (0.07) × 10^−4 mole fraction
solubility at 24 h ([1]; neat ε-caprolactone): 1010 µg/mL (≈ 3.1 mM)
solubility x ([1]; neat ε-caprolactone, 298.1 K): 3.25 (0.09) × 10^−4 mole fraction
solubility at 24 h ([2]; NMP-water binary mixture, x*NMP 0.1, 25 °C, aqueous with cosolvent or surfactant or cyclodextrin, x*NMP 0.1, 298.1 K): 5750 µg/mL (≈ 17.7 mM)
solubility at 24 h ([2]; NMP-water binary mixture, x*NMP 0.2, 25 °C, aqueous with cosolvent or surfactant or cyclodextrin, x*NMP 0.2, 298.1 K): 12100 µg/mL (≈ 37.2 mM)
solubility at 24 h ([2]; NMP-water binary mixture, x*NMP 0.3, 25 °C, aqueous with cosolvent or surfactant or cyclodextrin, x*NMP 0.3, 298.1 K): 18200 µg/mL (≈ 56 mM)
solubility at 24 h ([2]; NMP-water binary mixture, x*NMP 0.4, 25 °C, aqueous with cosolvent or surfactant or cyclodextrin, x*NMP 0.4, 298.1 K): 23300 µg/mL (≈ 71.6 mM)
solubility at 24 h ([2]; NMP-water binary mixture, x*NMP 0.7, 25 °C, aqueous with cosolvent or surfactant or cyclodextrin, x*NMP 0.7, 298.1 K): 34500 µg/mL (≈ 106 mM)
solubility at 24 h ([2]; NMP-water binary mixture, x*NMP 0.8, 25 °C, aqueous with cosolvent or surfactant or cyclodextrin, x*NMP 0.8, 298.1 K): 35900 µg/mL (≈ 110 mM)
solubility at 24 h ([2]; NMP-water binary mixture, x*NMP 0.9, 25 °C, aqueous with cosolvent or surfactant or cyclodextrin, x*NMP 0.9, 298.1 K): 34900 µg/mL (≈ 107 mM)
solubility at 24 h ([2]; NMP-water binary solvent, 25 °C, aqueous with cosolvent or surfactant or cyclodextrin, x*NMP 0.5, 298.1 K): 29500 µg/mL (≈ 90.7 mM)
solubility at 24 h ([2]; NMP-water binary solvent, 25 °C, aqueous with cosolvent or surfactant or cyclodextrin, x*NMP 0.6, 298.1 K): 33000 µg/mL (≈ 101 mM)
solubility at 24 h ([2]; NMP-water series, x*NMP 1.0, 25 °C, organic solvent or mixture, x*NMP 1.0, 298.1 K): 32700 µg/mL (≈ 101 mM)
solubility x ([2]; x*NMP 0.1, 298.1 K): 4.43 (0.05) × 10^−4 mole fraction
solubility x ([2]; x*NMP 0.2, 298.1 K): 1.23 (0.01) × 10^−3 mole fraction
solubility x ([2]; x*NMP 0.3, 298.1 K): 2.32 (0.03) × 10^−3 mole fraction
solubility x ([2]; x*NMP 0.4, 298.1 K): 3.53 (0.04) × 10^−3 mole fraction
solubility x ([2]; x*NMP 0.5, 298.1 K): 5.24 (0.06) × 10^−3 mole fraction
solubility x ([2]; x*NMP 0.6, 298.1 K): 6.71 (0.08) × 10^−3 mole fraction
solubility x ([2]; x*NMP 0.7, 298.1 K): 7.95 (0.08) × 10^−3 mole fraction
solubility x ([2]; x*NMP 0.8, 298.1 K): 8.96 (0.09) × 10^−3 mole fraction
solubility x ([2]; x*NMP 0.9, 298.1 K): 9.53 (0.11) × 10^−3 mole fraction
solubility x ([2]; x*NMP 1.0, 298.1 K): 9.80 (0.13) × 10^−3 mole fraction
solubility at 24 h ([3]; DMSO-water binary mixture, aqueous with cosolvent or surfactant or cyclodextrin, x*DMSO 0.1, 298.1 K): 3220 µg/mL (≈ 9.9 mM)
solubility at 24 h ([3]; DMSO-water binary mixture, aqueous with cosolvent or surfactant or cyclodextrin, x*DMSO 0.2, 298.1 K): 6950 µg/mL (≈ 21.4 mM)
solubility at 24 h ([3]; DMSO-water binary mixture, aqueous with cosolvent or surfactant or cyclodextrin, x*DMSO 0.3, 298.1 K): 10800 µg/mL (≈ 33.2 mM)
solubility at 24 h ([3]; DMSO-water binary mixture, aqueous with cosolvent or surfactant or cyclodextrin, x*DMSO 0.4, 298.1 K): 14300 µg/mL (≈ 44 mM)
solubility at 24 h ([3]; DMSO-water binary mixture, aqueous with cosolvent or surfactant or cyclodextrin, x*DMSO 0.5, 298.1 K): 18400 µg/mL (≈ 56.6 mM)
solubility at 24 h ([3]; DMSO-water binary mixture, aqueous with cosolvent or surfactant or cyclodextrin, x*DMSO 0.6, 298.1 K): 21000 µg/mL (≈ 64.6 mM)
solubility at 24 h ([3]; DMSO-water binary mixture, aqueous with cosolvent or surfactant or cyclodextrin, x*DMSO 0.7, 298.1 K): 24100 µg/mL (≈ 74.1 mM)
solubility at 24 h ([3]; DMSO-water binary mixture, aqueous with cosolvent or surfactant or cyclodextrin, x*DMSO 0.8, 298.1 K): 25400 µg/mL (≈ 78.1 mM)
solubility at 24 h ([3]; DMSO-water binary mixture, aqueous with cosolvent or surfactant or cyclodextrin, x*DMSO 0.9, 298.1 K): 24100 µg/mL (≈ 74.1 mM)
solubility at 24 h ([3]; DMSO-water series, organic solvent or mixture, x*DMSO 1.0, 298.1 K): 21400 µg/mL (≈ 65.8 mM)
solubility x ([3]; x*DMSO 0.1, 298.1 K): 2.11 (0.02) × 10^−4 mole fraction
solubility x ([3]; x*DMSO 0.2, 298.1 K): 5.76 (0.06) × 10^−4 mole fraction
solubility x ([3]; x*DMSO 0.3, 298.1 K): 1.08 (0.01) × 10^−3 mole fraction
solubility x ([3]; x*DMSO 0.4, 298.1 K): 1.69 (0.02) × 10^−3 mole fraction
solubility x ([3]; x*DMSO 0.5, 298.1 K): 2.46 (0.02) × 10^−3 mole fraction
solubility x ([3]; x*DMSO 0.6, 298.1 K): 3.18 (0.03) × 10^−3 mole fraction
solubility x ([3]; x*DMSO 0.7, 298.1 K): 4.01 (0.05) × 10^−3 mole fraction
solubility x ([3]; x*DMSO 0.8, 298.1 K): 4.68 (0.03) × 10^−3 mole fraction
solubility x ([3]; x*DMSO 0.9, 298.1 K): 4.86 (0.08) × 10^−3 mole fraction
solubility x ([3]; x*DMSO 1.0, 298.1 K): 4.63 (0.14) × 10^−3 mole fraction
SMILES: Nc1cccc(C(=O)NN=C2C(=O)Nc3ccc([N+](=O)[O-])cc32)c1 [derivative 2, 3-Amino-N′-[5-nitro-2-oxo-1,2-dihydro-3H-indol-3-ylidene]benzohydrazide]
solubility x ([1]; neat DMF, 298.1 K): 3.66 × 10^−3 mole fraction and 3.66 (0.06) × 10^−3 mole fraction
solubility x ([1]; neat DMSO, 298.1 K): 4.63 × 10^−3 mole fraction and 4.63 (0.14) × 10^−3 mole fraction
solubility x ([1]; neat NMP, 298.1 K): 9.80 × 10^−3 mole fraction and 9.80 (0.13) × 10^−3 mole fraction
